Source: paper PMC11087268, “A folate inhibitor exploits metabolic differences in Pseudomonas aeruginosa for narrow-spectrum targeting” (Nature Microbiology, 2024)

Test system: E. coli MG1655
Assay: Growth of E. coli MG1655 in TMI-supplemented media with fluorofolin
Assay type: cell-based, Escherichia coli

Nc1nc(N)c2c(ccc3c2ccn3Cc2ccnc(F)c2)n1 [fluorofolin]
OD600 of E. coli MG1655 (Fluorofolin + TMI, Time 420 min): 0.1585 | OD600 of E. coli MG1655 (Fluorofolin + TMI, Time 430 min): 0.163 | OD600 of E. coli MG1655 (Fluorofolin + TMI, Time 440 min): 0.167 | OD600 of E. coli MG1655 (Fluorofolin + TMI, Time 450 min): 0.1715 | OD600 of E. coli MG1655 (Fluorofolin + TMI, Time 460 min): 0.176 | OD600 of E. coli MG1655 (Fluorofolin + TMI, Time 470 min): 0.181 | OD600 of E. coli MG1655 (Fluorofolin + TMI, Time 480 min): 0.1855 | OD600 of E. coli MG1655 (Fluorofolin + TMI, Time 490 min): 0.19 | OD600 of E. coli MG1655 (Fluorofolin + TMI, Time 500 min): 0.1955 | OD600 of E. coli MG1655 (Fluorofolin + TMI, Time 510 min): 0.2005 | OD600 of E. coli MG1655 (Fluorofolin + TMI, Time 520 min): 0.2055 | OD600 of E. coli MG1655 (Fluorofolin + TMI, Time 530 min): 0.21 | OD600 of E. coli MG1655 (Fluorofolin + TMI, Time 540 min): 0.2145 | OD600 of E. coli MG1655 (Fluorofolin + TMI, Time 970 min): 0.33 | OD600 of E. coli MG1655 (Fluorofolin, Time 10 min): -0.0085 | OD600 of E. coli MG1655 (Fluorofolin, Time 70 min): -0.005 | OD600 of E. coli MG1655 (Fluorofolin, Time 80 min): -0.003 | OD600 of E. coli MG1655 (Fluorofolin, Time 90 min): -0.0015 | OD600 of E. coli MG1655 (Fluorofolin, Time 100 min): 0.001 | OD600 of E. coli MG1655 (Fluorofolin, Time 110 min): 0.0035 | OD600 of E. coli MG1655 (Fluorofolin, Time 120 min): 0.006 | OD600 of E. coli MG1655 (Fluorofolin, Time 130 min): 0.009 | OD600 of E. coli MG1655 (Fluorofolin, Time 140 min): 0.0125 | OD600 of E. coli MG1655 (Fluorofolin, Time 150 min): 0.0155 | OD600 of E. coli MG1655 (Fluorofolin, Time 160 min): 0.018 | OD600 of E. coli MG1655 (Fluorofolin, Time 170 min): 0.02 | OD600 of E. coli MG1655 (Fluorofolin, Time 180 min): 0.023 | OD600 of E. coli MG1655 (Fluorofolin, Time 190 min): 0.0255 | OD600 of E. coli MG1655 (Fluorofolin, Time 200 min): 0.028 | OD600 of E. coli MG1655 (Fluorofolin, Time 210 min): 0.0305 | OD600 of E. coli MG1655 (Fluorofolin, Time 220 min): 0.033 | OD600 of E. coli MG1655 (Fluorofolin, Time 230 min): 0.035 | OD600 of E. coli MG1655 (Fluorofolin, Time 240 min): 0.0365 | OD600 of E. coli MG1655 (Fluorofolin, Time 250 min): 0.0395 | OD600 of E. coli MG1655 (Fluorofolin, Time 260 min): 0.0405 | OD600 of E. coli MG1655 (Fluorofolin, Time 270 min): 0.042 | OD600 of E. coli MG1655 (Fluorofolin, Time 280 min): 0.044 | OD600 of E. coli MG1655 (Fluorofolin, Time 290 min): 0.0455 | OD600 of E. coli MG1655 (Fluorofolin, Time 300 min): 0.0475 | OD600 of E. coli MG1655 (Fluorofolin, Time 310 min): 0.0485 | OD600 of E. coli MG1655 (Fluorofolin, Time 320 min): 0.0505 | OD600 of E. coli MG1655 (Fluorofolin, Time 330 min): 0.0515 | OD600 of E. coli MG1655 (Fluorofolin, Time 340 min): 0.053 | OD600 of E. coli MG1655 (Fluorofolin, Time 350 min): 0.0545 | OD600 of E. coli MG1655 (Fluorofolin, Time 360 min): 0.0555 | OD600 of E. coli MG1655 (Fluorofolin, Time 370 min): 0.0565 | OD600 of E. coli MG1655 (Fluorofolin, Time 380 min): 0.0575 | OD600 of E. coli MG1655 (Fluorofolin, Time 390 min): 0.058 | OD600 of E. coli MG1655 (Fluorofolin, Time 400 min): 0.059 | OD600 of E. coli MG1655 (Fluorofolin, Time 410 min): 0.0595 | OD600 of E. coli MG1655 (Fluorofolin, Time 420 min): 0.0605 | OD600 of E. coli MG1655 (Fluorofolin, Time 430 min): 0.061 | OD600 of E. coli MG1655 (Fluorofolin, Time 440 min): 0.0615 | OD600 of E. coli MG1655 (Fluorofolin, Time 450 min): 0.062 | OD600 of E. coli MG1655 (Fluorofolin, Time 460 min): 0.062 | OD600 of E. coli MG1655 (Fluorofolin, Time 470 min): 0.063 | OD600 of E. coli MG1655 (Fluorofolin, Time 480 min): 0.0635 | OD600 of E. coli MG1655 (Fluorofolin, Time 490 min): 0.0635 | OD600 of E. coli MG1655 (Fluorofolin, Time 500 min): 0.064 | OD600 of E. coli MG1655 (Fluorofolin, Time 510 min): 0.064 | OD600 of E. coli MG1655 (Fluorofolin, Time 520 min): 0.064 | OD600 of E. coli MG1655 (Fluorofolin, Time 530 min): 0.064 | OD600 of E. coli MG1655 (Fluorofolin, Time 540 min): 0.064 | OD600 of E. coli MG1655 (Fluorofolin, Time 970 min): 0.053
